Tests used:
human orexin-1 receptor = human orexin-1 receptor (Homo sapiens (Human), UniProt O43613); experiment: In vitro assay: intracellular calcium measurements (FLIPR), antagonistic activity; type: cell-based; conditions: CHO cells expressing human orexin-1 receptor, orexin-A agonist, geometric mean, read-out: IC50 Ox1
How it was run: (§1)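 hOX1R/hOX2R CHO cells, fluo-4 AM + 5 mM probenecid, 50 min 37 °C then 30 min RT. Cpd 120 min, then orexin-A 3 nM final; FLIPR peak height vs vehicle. IC50, geometric mean of repeats.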

human orexin-2 receptor = human orexin-2 receptor (Homo sapiens (Human), UniProt O43614); experiment: as above; type: cell-based; conditions: CHO cells expressing human orexin-2 receptor, orexin-A agonist, geometric mean, read-out: IC50 Ox2
How it was run: as §1

Sequence of human orexin-1 receptor (O43613 whole entry): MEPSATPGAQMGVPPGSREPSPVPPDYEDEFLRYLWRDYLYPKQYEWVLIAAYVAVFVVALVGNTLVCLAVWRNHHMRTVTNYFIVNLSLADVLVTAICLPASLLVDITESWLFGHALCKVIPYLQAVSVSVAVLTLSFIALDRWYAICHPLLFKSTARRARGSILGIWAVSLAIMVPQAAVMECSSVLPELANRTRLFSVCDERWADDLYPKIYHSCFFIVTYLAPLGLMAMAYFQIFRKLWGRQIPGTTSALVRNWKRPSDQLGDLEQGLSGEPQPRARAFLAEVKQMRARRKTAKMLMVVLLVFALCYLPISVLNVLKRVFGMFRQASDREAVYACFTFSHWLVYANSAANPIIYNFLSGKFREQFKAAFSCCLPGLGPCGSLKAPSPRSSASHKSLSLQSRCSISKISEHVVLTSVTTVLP
Sequence of human orexin-2 receptor (O43614 whole entry): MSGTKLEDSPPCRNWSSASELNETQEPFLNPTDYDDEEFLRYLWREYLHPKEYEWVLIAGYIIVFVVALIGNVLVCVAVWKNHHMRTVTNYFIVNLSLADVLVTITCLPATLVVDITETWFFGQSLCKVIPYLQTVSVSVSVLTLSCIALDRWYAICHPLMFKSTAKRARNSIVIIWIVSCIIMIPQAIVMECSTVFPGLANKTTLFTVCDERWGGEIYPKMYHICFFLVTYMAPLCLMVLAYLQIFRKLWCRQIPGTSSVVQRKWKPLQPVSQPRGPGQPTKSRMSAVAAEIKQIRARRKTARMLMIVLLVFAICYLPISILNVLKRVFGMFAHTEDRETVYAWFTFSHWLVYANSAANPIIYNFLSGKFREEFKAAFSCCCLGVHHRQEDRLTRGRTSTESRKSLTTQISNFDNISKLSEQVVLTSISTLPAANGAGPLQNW

For `C=C1C[C@@H](c2nc3cc(SC)ccc3[nH]2)N(C(=O)c2nc(C)sc2-c2ccc(C)c(C)c2)C1` [Ex. 6.52], the IC50 (human orexin-1 receptor) was 8 nM and the IC50 (human orexin-2 receptor) was 2 nM.

For `C=C1C[C@@H](c2nc3c(C)cccc3[nH]2)N(C(=O)c2nc(C)sc2-c2ccc(C)c(C)c2)C1` [Ex. 6.53], the IC50 (human orexin-1 receptor) was 4 nM and the IC50 (human orexin-2 receptor) was 1 nM.

`C=C1C[C@@H](c2nc3c(C)c(Cl)ccc3[nH]2)N(C(=O)c2nc(C)sc2-c2ccc(C)c(C)c2)C1` [Ex. 6.54] gave an IC50 (human orexin-1 receptor) of 3 nM and an IC50 (human orexin-2 receptor) of 1 nM.

For `C=C1C[C@@H](c2nc3cc(Cl)c(C)cc3[nH]2)N(C(=O)c2nc(C)sc2-c2ccc(C)c(C)c2)C1` [Ex. 6.55], the IC50 (human orexin-1 receptor) was 5 nM and the IC50 (human orexin-2 receptor) was 1 nM.

Compound `C=C1C[C@@H](c2nc3cc(C)c(C)cc3[nH]2)N(C(=O)c2nc(C)sc2-c2ccc(C)c(C)c2)C1` [Ex. 6.56] has an IC50 (human orexin-1 receptor) of 6 nM and an IC50 (human orexin-2 receptor) of 1 nM.

Work on `C=C1C[C@@H](c2nc3cc(C(C)(C)C)ccc3[nH]2)N(C(=O)c2nc(C)sc2-c2ccc(C)c(C)c2)C1` [Ex. 6.57] yielded an IC50 (human orexin-1 receptor) of 11 nM and an IC50 (human orexin-2 receptor) of 11 nM.

`C=C1C[C@@H](c2nc3c(C)cc(C)cc3[nH]2)N(C(=O)c2nc(C)sc2-c2ccc(C)c(C)c2)C1` [Ex. 6.58] was tested, and the IC50 (human orexin-1 receptor) was 4 nM and the IC50 (human orexin-2 receptor) was 1 nM.

With `C=C1C[C@@H](c2nc3cccc(SC)c3[nH]2)N(C(=O)c2cc(C)ccc2-n2nccn2)C1` [Ex. 6.59] the IC50 (human orexin-1 receptor) was 76 nM and the IC50 (human orexin-2 receptor) was 10 nM.

Compound `C=C1C[C@@H](c2nc3cc(SC)ccc3[nH]2)N(C(=O)c2cc(C)ccc2-n2nccn2)C1` [Ex. 6.60] has an IC50 (human orexin-1 receptor) of 83 nM and an IC50 (human orexin-2 receptor) of 3 nM.

For `C=C1C[C@@H](c2nc3cc(C)c(C)cc3[nH]2)N(C(=O)c2cc(C)ccc2-n2nccn2)C1` [Ex. 6.61], the IC50 (human orexin-1 receptor) was 41 nM and the IC50 (human orexin-2 receptor) was 4 nM.

`C=C1C[C@@H](c2nc3c(C)cc(C)cc3[nH]2)N(C(=O)c2cc(C)ccc2-n2nccn2)C1` [Ex. 6.62] was tested, and the IC50 (human orexin-1 receptor) was 44 nM and the IC50 (human orexin-2 receptor) was 4 nM.

`C=C1C[C@@H](c2nc3c(C)c(C)ccc3[nH]2)N(C(=O)c2cc(C)ccc2-n2nccn2)C1` [Ex. 6.63] gave an IC50 (human orexin-1 receptor) of 88 nM and an IC50 (human orexin-2 receptor) of 3 nM.

Compound `C=C1C[C@@H](c2nc3c(Br)cccc3[nH]2)N(C(=O)c2cc(C)ccc2-n2nccn2)C1` [Ex. 6.64] has an IC50 (human orexin-1 receptor) of 142 nM and an IC50 (human orexin-2 receptor) of 33 nM.

With `C=C1C[C@@H](c2nc3cc(Cl)c(C)cc3[nH]2)N(C(=O)c2cc(C)ccc2-n2nccn2)C1` [Ex. 6.65] the IC50 (human orexin-1 receptor) was 34 nM and the IC50 (human orexin-2 receptor) was 3 nM.

For `C=C1C[C@@H](c2nc3cc(C(C)(C)C)ccc3[nH]2)N(C(=O)c2cc(C)ccc2-n2nccn2)C1` [Ex. 6.66], the IC50 (human orexin-1 receptor) was 57 nM and the IC50 (human orexin-2 receptor) was 2 nM.

In the case of `C=C1C[C@@H](c2nc3cc(Cl)c(C(F)(F)F)cc3[nH]2)N(C(=O)c2cc(C)ccc2-n2nccn2)C1` [Ex. 6.67], the IC50 (human orexin-1 receptor) is reported as 9 nM and the IC50 (human orexin-2 receptor) is reported as 5 nM.

With `C=C1C[C@@H](c2nc3c(OC)ccc(OC)c3[nH]2)N(C(=O)c2cc(C)ccc2-n2nccn2)C1` [Ex. 6.68] the IC50 (human orexin-1 receptor) was 767 nM and the IC50 (human orexin-2 receptor) was 62 nM.

Work on `C=C1C[C@@H](c2nc3cccc(Cl)c3[nH]2)N(C(=O)c2cc(C)ccc2-n2nccn2)C1` [Ex. 6.69] yielded an IC50 (human orexin-1 receptor) of 389 nM and an IC50 (human orexin-2 receptor) of 51 nM.

In the case of `C=C1CC(c2nc3cc(SC)ccc3[nH]2)N(C(=O)c2cc(C)sc2-c2ccc(C)c(C)c2)C1` (stereo not drawn) [Ex. 6.73], the IC50 (human orexin-1 receptor) is reported as 10 nM and the IC50 (human orexin-2 receptor) is reported as 4 nM.

With `C=C1CC(c2nc3c(C)c(Cl)ccc3[nH]2)N(C(=O)c2cc(C)sc2-c2ccc(C)c(C)c2)C1` (stereo not drawn) [Ex. 6.74] the IC50 (human orexin-1 receptor) was 4 nM and the IC50 (human orexin-2 receptor) was 11 nM.

`C=C1CC(c2nc3c(C)cc(C)cc3[nH]2)N(C(=O)c2cc(C)sc2-c2ccc(C)c(C)c2)C1` (stereo not drawn) [Ex. 6.76] was tested, and the IC50 (human orexin-1 receptor) was 4 nM and the IC50 (human orexin-2 receptor) was 4 nM.

In the case of `C=C1CC(c2nc3c(C)c(C)ccc3[nH]2)N(C(=O)c2cc(C)sc2-c2ccc(C)c(C)c2)C1` (stereo not drawn) [Ex. 6.77], the IC50 (human orexin-1 receptor) is reported as 3 nM and the IC50 (human orexin-2 receptor) is reported as 9 nM.

Work on `C=C1CC(c2nc3c(Br)cccc3[nH]2)N(C(=O)c2cc(C)sc2-c2ccc(C)c(C)c2)C1` (stereo not drawn) [Ex. 6.78] yielded an IC50 (human orexin-1 receptor) of 5 nM and an IC50 (human orexin-2 receptor) of 12 nM.

For `C=C1CC(c2nc3c(C)cccc3[nH]2)N(C(=O)c2cc(C)sc2-c2ccc(C)c(C)c2)C1` (stereo not drawn) [Ex. 6.79], the IC50 (human orexin-1 receptor) was 2 nM and the IC50 (human orexin-2 receptor) was 4 nM.

— patent publication US9732075B2, “Benzimidazole-proline derivatives” (IDORSIA PHARMACEUTICALS LTD, priority 2012, dated 2017)
